Source: PubChem BioAssay (NCI)
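48-hour exposure; five concentrations; linearly interpolated endpoints. At the GI50, growth is halved. Definition used: TGI = concentration required for complete inhibition of growth.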

How the values were obtained:
Assay in all cases: NCI-60 cell line screen, 48 h
[1] = test system: EKVX NSCLC
[2] = test system: SK-MEL-5 melanoma
[3] = test system: OVCAR-5 ovarian
[4] = test system: UACC-257 melanoma
[5] = test system: HT29 colon
[6] = test system: SN12C renal
[7] = test system: SNB-19 CNS
[8] = test system: HCT-116 colon
[9] = test system: SF-539 CNS
[10] = test system: MALME-3M melanoma

Work on `CCCOC(=O)N1CCN(/[N+]([O-])=N/Oc2ccc([N+](=O)[O-])cc2[N+](=O)[O-])CC1` yielded a GI50 [1] of 2.64 µM, a TGI [1] of 7.79 µM and a GI50 [2] of 2.35 µM. For the same compound, the TGI [2] was 7.53 µM, the GI50 [3] was 3.43 µM and the TGI [3] was 12.7 µM. The GI50 [4] was 9.52 µM, the TGI [4] was 24.2 µM and the GI50 [5] was 2.05 µM. For the same compound, the TGI [5] was > 100 µM, the GI50 [6] was 2.58 µM and the TGI [6] was 6.94 µM. The GI50 [7] was 5.08 µM, the TGI [7] was 18.7 µM and the GI50 [8] was 0.301 µM. The TGI [8] was 1.17 µM, the GI50 [9] was 0.273 µM and the TGI [9] was 0.648 µM.

`C/C(CC(=O)Nc1ccc(Cl)cc1)=N\NC(N)=S` was tested, and the TGI [1] was > 100 µM, the TGI [2] was > 100 µM and the TGI [3] was > 100 µM. For the same compound, the TGI [4] was > 100 µM, the TGI [10] was > 100 µM and the TGI [5] was > 100 µM. The TGI [8] was > 100 µM and the TGI [9] was > 100 µM.

`O=C(c1ccccc1)c1cccc(C(=O)c2ccccc2)c1` was tested, and the TGI [1] was > 100 µM, the TGI [2] was > 100 µM and the TGI [4] was > 100 µM. The TGI [10] was > 100 µM, the TGI [5] was > 100 µM and the TGI [6] was > 100 µM. For the same compound, the TGI [7] was > 100 µM, the TGI [8] was > 100 µM and the TGI [9] was > 100 µM.

In the case of `CN(/N=C/c1cccc2cccnc12)c1ccccc1`, the TGI [1] is reported as > 100 µM, the TGI [2] is reported as > 100 µM and the TGI [3] is reported as > 100 µM. For the same compound, the TGI [4] was > 100 µM, the TGI [10] was > 100 µM and the TGI [5] was > 100 µM. For the same compound, the TGI [6] was > 100 µM, the TGI [7] was > 100 µM and the TGI [9] was > 100 µM.

In the case of `Cc1ccc(S(=O)(=O)Nc2cccc3[nH]c(C(F)(F)F)nc23)cc1`, the GI50 [2] is reported as 0.429 µM, the TGI [2] is reported as 3.98 µM and the GI50 [3] is reported as 1.85 µM. The TGI [3] was > 74.1 µM, the GI50 [4] was 1.32 µM and the TGI [4] was > 42 µM. It also gave a GI50 [10] of 1.95 µM, a TGI [10] of 37.3 µM and a GI50 [5] of 0.351 µM. For the same compound, the TGI [5] was 7.31 µM, the GI50 [6] was 2.72 µM and the TGI [6] was > 89.2 µM. The GI50 [7] was 0.972 µM, the TGI [7] was > 100 µM and the GI50 [8] was 0.414 µM. The TGI [8] was > 100 µM, the GI50 [9] was 0.427 µM and the TGI [9] was 2.06 µM.

`COC(=O)c1cc(Cl)ccc1NC(=O)c1ccc([N+](=O)[O-])cc1` was tested, and the TGI [1] was > 100 µM, the TGI [2] was > 100 µM and the TGI [3] was > 100 µM. For the same compound, the TGI [4] was > 100 µM, the TGI [10] was 90.6 µM and the TGI [5] was 35.1 µM. The TGI [8] was 17.9 µM and the TGI [9] was 49.1 µM.

With `C=C1c2[nH]c3c([N+](=O)[O-])c(OC)ccc3c2CCN1C(C)=O` the TGI [1] was > 100 µM, the TGI [3] was > 100 µM and the TGI [4] was > 100 µM. The TGI [5] was > 100 µM, the TGI [6] was > 100 µM and the TGI [7] was > 100 µM. For the same compound, the TGI [8] was > 100 µM and the TGI [9] was > 100 µM.

With `CN1CC[C@@H](c2c(O)cc(O)c3c(=O)cc(-c4ccccc4Cl)oc23)[C@@H]1CO` the GI50 [1] was 0.372 µM, the TGI [1] was > 8.02 µM and the GI50 [3] was 0.287 µM. For the same compound, the TGI [3] was > 10 µM, the GI50 [4] was 0.296 µM and the TGI [4] was 1.36 µM. The GI50 [10] was 0.361 µM, the TGI [10] was 1.58 µM and the GI50 [5] was 0.442 µM. For the same compound, the TGI [5] was 6.66 µM, the GI50 [6] was 0.299 µM and the TGI [6] was > 10 µM. The GI50 [7] was 0.344 µM, the TGI [7] was > 10 µM and the GI50 [8] was 0.2 µM. The TGI [8] was > 10 µM, the GI50 [9] was 0.275 µM and the TGI [9] was 0.863 µM.

For `O=CC1CCCc2ccccc21` (stereo not drawn), the TGI [1] was > 100 µM, the TGI [2] was > 100 µM and the TGI [3] was > 100 µM. For the same compound, the TGI [4] was > 100 µM, the TGI [10] was > 100 µM and the TGI [5] was > 100 µM. For the same compound, the TGI [6] was > 100 µM, the TGI [7] was > 100 µM and the TGI [8] was > 77.2 µM.

With `Nc1[nH]nc2nc(-c3cccs3)cc(C(F)(F)F)c12` the GI50 [2] was > 25 µM, the TGI [2] was > 25 µM and the GI50 [3] was > 25 µM. The TGI [3] was > 25 µM, the GI50 [4] was > 25 µM and the TGI [4] was > 25 µM. For the same compound, the GI50 [10] was > 25 µM, the TGI [10] was > 25 µM and the GI50 [5] was > 25 µM. For the same compound, the TGI [5] was > 25 µM, the GI50 [6] was > 25 µM and the TGI [6] was > 25 µM. For the same compound, the GI50 [7] was > 25 µM, the TGI [7] was > 25 µM and the GI50 [8] was > 17.9 µM. The TGI [8] was > 25 µM, the GI50 [9] was > 25 µM and the TGI [9] was > 25 µM.

For `Cc1ccc(C)c(NC(=O)CC/C(=N\NC(=O)c2c(O)ccc3ccccc23)C(C)C(=O)c2ccc(O)cc2)c1` (stereo not drawn), the TGI [2] was > 100 µM, the TGI [3] was > 100 µM and the TGI [4] was 87.1 µM. For the same compound, the TGI [10] was 90.2 µM, the TGI [5] was > 100 µM and the TGI [6] was > 100 µM. The TGI [7] was > 100 µM, the TGI [8] was > 100 µM and the TGI [9] was 80.5 µM.

In the case of `Cc1ccc(Nc2nc(C)c(C(/C=C/c3ccc(/C=C/C(=N/NC(=O)C[n+]4ccccc4)c4sc(Nc5ccc(C)cc5[N+](=O)[O-])nc4C)cc3)=N\NC(=O)C[n+]3ccccc3)s2)c([N+](=O)[O-])c1`, the TGI [1] is reported as > 100 µM, the TGI [3] is reported as > 100 µM and the TGI [4] is reported as > 100 µM. For the same compound, the TGI [10] was > 100 µM, the TGI [5] was > 100 µM and the TGI [6] was > 100 µM. For the same compound, the TGI [7] was > 100 µM, the TGI [8] was > 100 µM and the TGI [9] was > 100 µM.

For `O=C(Nc1ccc(Cl)c(Cl)c1)O/N=C\c1c(Cl)ccc([N+](=O)[O-])c1Cl`, the GI50 [2] was 2.38 µM, the TGI [2] was 8.59 µM and the GI50 [3] was 1.86 µM. For the same compound, the TGI [3] was 3.84 µM, the GI50 [4] was 1.46 µM and the TGI [4] was 2.86 µM. For the same compound, the GI50 [5] was 1.91 µM, the TGI [5] was 3.53 µM and the GI50 [6] was 2.59 µM. For the same compound, the TGI [6] was 8.52 µM, the GI50 [7] was 7.6 µM and the TGI [7] was 20.6 µM. The GI50 [8] was 1.49 µM, the TGI [8] was 3.25 µM and the GI50 [9] was 2.64 µM. For the same compound, the TGI [9] was 8.36 µM.

With `COc1cc(C(=O)NC2CCN(C)CC2)c(F)cc1Nc1ncc2c(n1)N(C1CCCC1)CC(F)(F)C(=O)N2C` the GI50 [2] was < 0.022 µM, the TGI [2] was 2.32 µM and the GI50 [3] was < 0.0191 µM. The TGI [3] was 14.3 µM, the GI50 [4] was 1.25 µM and the TGI [4] was 10.9 µM. For the same compound, the GI50 [5] was < 0.01 µM, the TGI [5] was 11.1 µM and the GI50 [6] was 0.0604 µM. The TGI [6] was 14.4 µM, the GI50 [7] was < 0.0281 µM and the TGI [7] was 17.1 µM. For the same compound, the GI50 [8] was < 0.0142 µM, the TGI [8] was 12 µM and the GI50 [9] was < 0.0181 µM. It also gave a TGI [9] of 1.3 µM.

In the case of `COc1ccc2ccccc2c1C1OC(=O)c2ccccc21` (stereo not drawn), the TGI [1] is reported as > 100 µM, the TGI [2] is reported as > 100 µM and the TGI [3] is reported as > 100 µM. The TGI [4] was > 100 µM, the TGI [10] was > 100 µM and the TGI [5] was > 100 µM. For the same compound, the TGI [6] was > 100 µM, the TGI [7] was > 100 µM and the TGI [9] was > 100 µM.

In the case of `Cc1ccccc1NC(=O)C(=O)CC(=O)c1c(C)n([O-])c2ccccc2[n+]1=O`, the TGI [1] is reported as > 100 µM, the TGI [3] is reported as > 100 µM and the TGI [4] is reported as > 100 µM. The TGI [10] was > 100 µM, the TGI [5] was > 100 µM and the TGI [6] was > 100 µM. The TGI [7] was > 100 µM, the TGI [8] was > 100 µM and the TGI [9] was > 100 µM.

In the case of `COc1ccc(/C=N/N=C(\N)NO)c(OC)c1`, the TGI [1] is reported as > 100 µM, the TGI [2] is reported as > 100 µM and the TGI [3] is reported as 36.1 µM. For the same compound, the TGI [4] was > 100 µM, the TGI [10] was > 100 µM and the TGI [6] was > 100 µM. For the same compound, the TGI [7] was > 100 µM, the TGI [8] was > 100 µM and the TGI [9] was > 100 µM.

For `Clc1nc(Cl)c2ncn(C/C=C/COc3cccc(OC/C=C/Cn4cnc5c(Cl)nc(Cl)nc54)c3)c2n1`, the GI50 [1] was > 100 µM, the TGI [1] was > 100 µM and the GI50 [2] was 53.5 µM. The TGI [2] was > 100 µM, the GI50 [3] was > 100 µM and the TGI [3] was > 100 µM. The GI50 [4] was > 100 µM, the TGI [4] was > 100 µM and the GI50 [10] was > 100 µM. For the same compound, the TGI [10] was > 100 µM, the GI50 [5] was > 100 µM and the TGI [5] was > 100 µM. For the same compound, the GI50 [6] was > 100 µM, the TGI [6] was > 100 µM and the GI50 [7] was > 100 µM. The TGI [7] was > 100 µM, the GI50 [9] was > 100 µM and the TGI [9] was > 100 µM.
